# Reference: patent US11754498B2, “Single AIEgen for multiple tasks: imaging of dual organelles and evaluation of cell viability” (THE HONG KONG UNIVERSITY OF SCIENCE AND TECHNOLOGY, priority 2019, dated 2023)
# Legend:
# HeLa cells [1] = assay: standard MTT assay, cytotoxicity in HeLa cells; assay type: cell-based; settings: incubation at different concentrations for 24 h
# Source text: Before bioimaging, the cytotoxicity of TVQE was first studied by standard MTT assay in HeLa cells.
# live HeLa cells = assay: CLSM imaging of live HeLa cells, in situ emission spectra and time tracking; assay type: cell-based
# Description: Bioimaging experiments were then carried out in live HeLa cells. Based on the spectra imaging function of confocal laser scanning microscope (CLSM), the real color images of live HeLa cells stained with TVQE and in situ emission spectra were obtained (FIGS. 14A-14C and FIG. 15A). […] As designed, TVQE can be hydrolyzed by esterase to provide TVQ. It was speculated that the red emission came from TVQE while the blue emission was from the hydrolysate TVQ.
# The in situ imaging performance of TVQE in live HeLa cells at different time points was then tracked and investigated (FIGS. 16A-16B and FIGS. 17A-17B). It could be observed that TVQE first stained mitochondria and emitted red fluorescence. Then, after about 5 min, lipid droplets in the blue channel were clearly illuminated. It should be noted that the fluorescence intensity in the red channel increased at the beginning, reached maximum at about 12 min, then decreased gradually. The fluorescence in the blue channel increased with increased time. […] In addition, the lipophilic hydrolysate tended to accumulate in lipid droplets gradually.
# HeLa cells [2] = assay: flow cytometry of live, early apoptotic, late apoptotic and dead cells stained by TVQE; assay type: cell-based
# Description: As esterase activity can reflect cell viability, an investigation was conducted to determine whether TVQE could be used to evaluate cell viability. […] In apoptotic cells, the esterase activity decreased, so that the emission in the blue channel was much weaker than that in live cells. When HeLa cells were treated with 10 mM H2O2 for 1 h and 4.5 h, early and late apoptotic HeLa cells could be clearly and differentially visualized (FIGS. 18 and 19). […] However, nearly no blue-emissive fluorescence signal but strong red emission was detected in dead cells because of the inactivated esterase activity. […] The fluorescence changes in both blue and red channels of cells in different states were obtained from flow cytometry (Becton Dickinson FACSAria Mu). Referring to FIG. 20C, numerical values in the cyan region, e.g., mean fluorescent intensity values around 3.2×10^4 and 650 in the blue and red channels, respectively correspond to cells that were alive, numerical values in the red region, e.g., mean fluorescence intensity values around 1.4×10^4 and 780 in the blue and red channels, respectively, correspond to cells in early apoptotic stages, numerical values in the orange region, e.g., mean fluorescence intensity values around 1700 and 4200 in the blue and red channels, respectively, correspond to cells in the late apoptotic stages, and numerical values in the green region, e.g., mean fluorescence intensity values around 780 and 1.5×10^4 in the blue and red channels, respectively, correspond to cells that were dead.
# Flow cytometry is a widely used tool for statistical analysis. It has different laser sources and is suitable for simultaneous detection of multichannel fluorescence signals. A flow cytometry assay was performed to monitor the fluorescence changes in both red and blue channels of cells at different physiological stages. […] Compared with live cells, the blue emission in early apoptotic cells was a little weaker. […] The red emission in dead cells was stronger in comparison with late apoptotic cells.
# [3] = test system: mitochondria in live HeLa cells; assay: co-stain with mitochondrial probe MitoTracker Deep Red FM (MTDR), CLSM; assay type: cell-based; settings: 2 μM TVQE, 0.2 μM MTDR
# Description: (§1) To further confirm the staining location of TVQE, co-stain experiments with commercialized mitochondrial probe MitoTracker Deep Red FM (MTDR) and lipid-droplet probe Nile Red were performed.
# [4] = test system: lipid droplets in live HeLa cells; assay: co-stain with lipid-droplet probe Nile Red, CLSM; assay type: cell-based; settings: 2 μM TVQE, 1 μM Nile Red
# Description: as §1
# [5] = absorption and fluorescence (FL) spectra, photophysical properties; assay type: physicochemical
# Description: The absorption and fluorescence (FL) spectra of TVQE and TVQ in different solvents were tested and the results are shown in FIGS. 11A-11D and FIGS. 12A-12D.
# Furthermore, fluorescence spectra of TVQE in EtOH and EtOH/hexane mixtures with different hexane fraction were shown in FIG. 11A. In pure EtOH, TVQE was weakly emissive with a quantum yield of 0.7%. With the increase of hexane volume content, the FL intensity increased gradually, accompanied with blue-shift in FL maximum from 673 nm to 637 nm, shown in FIG. 11B. When fH=90%, FL intensity reached the maximum with a quantum yield of 3% due to the formation of aggregates, indicating the AIE feature of TVQE. The FL intensity decreased when fH increased to 95%, probably due to the change of the morphology and size of the aggregates. […]
# esterase = assay: FL spectra of TVQE treated with active esterase in PBS; assay type: biochemical; settings: room temperature
# Description: To get insight into the mechanism of TVQE to esterase, the FL spectra of TVQE treated with active esterase in PBS at room temperature were measured and shown in FIG. 11D. At the beginning, only a weak emission peak at around 700 nm was detected. As treatment time progressed, the fluorescence at about 520 nm increased gradually, which was consistent with the FL spectra of TVQ in PBS, depicted in FIG. 12B.
# [6] = live HeLa cells stained with 2 μM TVQE, in situ emission spectra
# [7] = cells in early apoptotic stages (10 mM H2O2)
# [8] = cells in the late apoptotic stages (10 mM H2O2)
compound,measurement,setting,value
CC(=O)Oc1ccc(C[n+]2ccc(/C=C/c3ccc(N(c4ccccc4)c4ccccc4)cc3)c3ccccc32)cc1 [TVQE],viability of HeLa cells,HeLa cells [1],higher than 85%
same,blue emission inside cells,live HeLa cells; [6],480 nm
same,red emission inside cells,live HeLa cells; [6],650 nm
same,time after which lipid droplets in the blue channel were clearly illuminated,"live HeLa cells; live HeLa cells, 2 μM TVQE",about 5 min
same,time at which fluorescence intensity in the red channel reached maximum,"live HeLa cells; live HeLa cells, 2 μM TVQE",about 12 min
same,"mean fluorescence intensity, blue channel",HeLa cells [2]; [7],around 1.4×10^4
same,"mean fluorescence intensity, red channel",HeLa cells [2]; [7],around 780
same,"mean fluorescence intensity, blue channel",HeLa cells [2]; [8],around 1700
same,"mean fluorescence intensity, red channel",HeLa cells [2]; [8],~4200
same,"mean fluorescent intensity, blue channel",HeLa cells [2]; cells that were alive,around 3.2×10^4
same,"mean fluorescent intensity, red channel",HeLa cells [2]; cells that were alive,~650
same,"mean fluorescence intensity, blue channel",HeLa cells [2]; cells that were dead,around 780
same,"mean fluorescence intensity, red channel",HeLa cells [2]; cells that were dead,~1.5×10^4
same,co-localization coefficient with MTDR,[3],0.9
same,co-localization coefficient with Nile Red,[4],0.87
same,Stokes shift,[5]; EtOH,123 nm
same,Φ (fluorescence quantum yield),[5]; EtOH,0.7%
same,ε (molar absorptivity at maximum absorption wavelength),[5]; EtOH,18900 M⁻¹ cm⁻¹
same,λabs (absorption maximum),[5]; EtOH,548 nm
same,λem (emission maximum),[5]; EtOH,671 nm
same,Stokes shift,[5]; Hexane/EtOH = 9/1,131 nm
same,ε (molar absorptivity at maximum absorption wavelength),[5]; Hexane/EtOH = 9/1,18800 M⁻¹ cm⁻¹
same,λabs (absorption maximum),[5]; Hexane/EtOH = 9/1,527 nm
same,λem (emission maximum),[5]; Hexane/EtOH = 9/1,656 nm
same,Φ (fluorescence quantum yield),[5]; Hexane/EtOH = 9/1 (fH=90%),3%
same,Stokes shift,[5]; THF,156 nm
same,Φ (fluorescence quantum yield),[5]; THF,1.3%
same,ε (molar absorptivity at maximum absorption wavelength),[5]; THF,16600 M⁻¹ cm⁻¹
same,λabs (absorption maximum),[5]; THF,522 nm
same,λem (emission maximum),[5]; THF,678 nm
same,Stokes shift,[5]; Tol,125 nm
same,Φ (fluorescence quantum yield),[5]; Tol,6.6%
same,ε (molar absorptivity at maximum absorption wavelength),[5]; Tol,17300 M⁻¹ cm⁻¹
same,λabs (absorption maximum),[5]; Tol,534 nm
same,λem (emission maximum),[5]; Tol,659 nm
same,fluorescence emission,[5]; solid state,739 nm
same,quantum yield,[5]; solid state,2.3%
same,hydrolysis by esterase,esterase; active esterase (1 U/mL) in PBS,could be hydrolyzed to TVQ with blue emission by esterase
same,fluorescence increasing gradually as treatment time progressed,esterase; esterase in PBS,about 520 nm
same,emission peak at the beginning,"esterase; esterase in PBS, beginning of treatment",around 700 nm
